# Key:
# [1] = system: Escherichia coli; experiment: Antibacterial activity against NDM-1 positive Escherichia coli ZC-YN3 isolates assessed as doxycycline MIC incubated for 18 to 24 hrs by CLSI based broth microdilution method; format: functional; details: time 18-24 hrs
# [2] = system: Escherichia coli; experiment: Antibacterial activity against NDM-1 positive MCR1 carrying Escherichia coli ZJ487 isolates assessed as meropenem MIC incubated for 18 to 24 hrs by CLSI based broth microdilution method; format: functional; details: time 18-24 hrs
# [3] = system: Escherichia coli; experiment: Antibacterial activity against pET28a-NDM-1 positive Escherichia coli BL21(DE3) isolates assessed as ampicillin MIC incubated for 18 to 24 hrs by CLSI based broth microdilution method; format: functional; details: time 18-24 hrs
# [4] = system: Escherichia coli; experiment: Antibacterial activity against pET28a-NDM-1 positive Escherichia coli BL21(DE3) isolates assessed as tetracycline MIC incubated for 18 to 24 hrs by CLSI based broth microdilution method; format: functional; details: time 18-24 hrs
# [5] = system: Escherichia coli; experiment: Antibacterial activity against pET28a-NDM-1 positive Escherichia coli BL21(DE3) isolates assessed as streptomycin MIC incubated for 18 to 24 hrs by CLSI based broth microdilution method; format: functional; details: time 18-24 hrs
# [6] = system: Escherichia coli; experiment: Antibacterial activity against NDM-1 positive Escherichia coli ZC-YN3 isolates assessed as meropenem MIC incubated for 18 to 24 hrs by CLSI based broth microdilution method; format: functional; details: time 18-24 hrs
# [7] = system: Escherichia coli; experiment: Antibacterial activity against NDM-1 positive Escherichia coli ZC-YN3 isolates assessed as streptomycin MIC incubated for 18 to 24 hrs by CLSI based broth microdilution method; format: functional; details: time 18-24 hrs
# [8] = system: Escherichia coli; experiment: Synergistic antibacterial activity against pET28a NDM-1 positive Escherichia coli BL21(DE3) isolates assessed as fractional Inhibitory concentration index incubated for 18 to 24 hrs in presence of rifampicin by CLSI based broth microdilution method; format: functional; details: time 18-24 hrs
# [9] = system: Escherichia coli; experiment: Synergistic antibacterial activity against NDM-1 positive Escherichia coli ZC-YN3 isolates assessed as fractional Inhibitory concentration index incubated for 18 to 24 hrs in presence of cefotaxime by CLSI based broth microdilution method; format: functional; details: time 18-24 hrs
# [10] = system: Escherichia coli; experiment: Synergistic antibacterial activity against NDM-1 positive Escherichia coli ZC-YN3 isolates assessed as fractional Inhibitory concentration index incubated for 18 to 24 hrs in presence of imipenem by CLSI based broth microdilution method; format: functional; details: time 18-24 hrs
# [11] = system: Escherichia coli; experiment: Synergistic antibacterial activity against NDM-1 positive Escherichia coli ZC-YN3 isolates assessed as fractional Inhibitory concentration index incubated for 18 to 24 hrs in presence of rifampicin by CLSI based broth microdilution method; format: functional; details: time 18-24 hrs
# [12] = system: Escherichia coli; experiment: Synergistic antibacterial activity against NDM-1 negative Escherichia coli ATCC25922 isolates assessed as fractional Inhibitory concentration index incubated for 18 to 24 hrs in presence of meropenem by CLSI based broth microdilution method; format: functional; details: time 18-24 hrs
# [13] = system: Mus musculus; experiment: Antibacterial activity in BALB/c mouse infected with NDM-1 positive Escherichia coli ZJ487 assessed as increase in survival rate at 10 mg/kg, sc administered every 12 hrs and measured after 96 hrs post infection; format: functional
# [14] = system: Bacteria; experiment: Binding affinity to NDM-1 H250A mutant (unknown origin) assessed as binding free energy by fluorescence quenching method
# [15] = system: Bacteria
# Description: Binding affinity to NDM-1 (unknown origin) assessed as binding constant by fluorescence quenching method
smiles,measurement,setting,value
O=c1c(O)c(-c2ccc(O)c(O)c2)oc2cc(O)ccc12 [FISETIN],MIC,[1],53.3 µg/mL
same,MIC,[2],5.33 µg/mL
same,MIC,[3],683 µg/mL
same,MIC,[4],427 µg/mL
same,MIC,[5],42.7 µg/mL
same,MIC,[6],4 µg/mL
same,MIC,[7],256 µg/mL
same,fractional inhibitory concentration index (FICI),[8],0.96
same,fractional inhibitory concentration index (FICI),[9],1.13
same,fractional inhibitory concentration index (FICI),[10],0.38
same,fractional inhibitory concentration index (FICI),[11],0.96
same,fractional inhibitory concentration index (FICI),[12],1.13
same,Activity,[13],20%
same,Activity,[14],-12.4 kcal/mol
same,Ka,[15],12.2 10^5L/mol
